The experiment concerns the target T1, hM1 (human Muscarinic receptor subtype 1) (Homo sapiens, UniProt P11229).
T1 construct: expressed in transfected cells; host or cells: CHO cells (Chinese hamster ovary cells, ATCC)
T1 sequence (P11229 1-460): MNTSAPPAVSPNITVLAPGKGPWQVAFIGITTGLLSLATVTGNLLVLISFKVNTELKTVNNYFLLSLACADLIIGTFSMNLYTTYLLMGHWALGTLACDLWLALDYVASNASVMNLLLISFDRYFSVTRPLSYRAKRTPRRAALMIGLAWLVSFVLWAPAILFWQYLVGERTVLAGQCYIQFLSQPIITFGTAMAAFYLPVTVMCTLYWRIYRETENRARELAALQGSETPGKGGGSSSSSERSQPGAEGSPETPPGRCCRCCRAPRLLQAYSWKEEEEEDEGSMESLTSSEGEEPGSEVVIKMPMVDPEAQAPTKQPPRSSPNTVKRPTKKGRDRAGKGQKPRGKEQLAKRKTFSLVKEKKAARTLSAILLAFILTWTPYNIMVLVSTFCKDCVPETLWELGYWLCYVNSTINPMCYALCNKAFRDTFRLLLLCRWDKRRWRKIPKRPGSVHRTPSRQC
As to the kind of experiment: Human M1 calcium mobilization FLIPR assay. Type of experiment: cell-based. The conditions noted are these: hM1 expressed in CHO cells, intracellular Ca2+ release, read-out: hM1 EC50. How it is done: Human M1, rat M1, human M3 and human M5 Calcium Mobilization FLIPR™ Assay
The compound activity in the present invention (EC50 or IC50) is measured using a 384 plate-based imaging assay that monitors drug induced intracellular Ca^2+ release in whole cells. Activation of hM1 (human Muscarinic receptor subtype 1, gene bank access NM_000738), rM1 (rat Muscarinic receptor subtype 1, gene bank access NM_080773), hM3 (human Muscarinic receptor subtype 3, gene bank access NM_000740NM_000740) and hM5 (human Muscarinic receptor subtype 5, gene bank access NM_0121258), receptors expressed in CHO cells (Chinese hamster ovary cells, ATCC) is quantified in a Molecular Devices FLIPR II™ instrument as an increase in fluorescent signal. Inhibition of hM3 and hM5 by compounds is determined by the decrease in fluorescent signal in response to 2 nM acetylcholine activation.
Prior to experiment, the cell culture medium is removed from the plates by inversion. […] Plates are incubated at 37° C. for 60 minutes prior to start the experiment. The incubation is terminated by washing the cells four times in assay buffer, leaving a residual 25 μl buffer per well. Cell plates are then transferred to the FLIPR, ready for compound additions.
The day of experiment, acetylcholine and compounds are diluted in assay buffer in three-fold concentration range (10 points serial dilution) for addition by FLIPR instrument. For all calcium assays, a baseline reading is taken for 10 seconds followed by the addition of 12.5 μl of compounds, resulting in a total well volume of 37.5 μl. Data is collected every second for 60 pictures and then every 6 seconds for 20 pictures prior to the addition of agonist. For hM3 and hM5, before agonist addition, a second baseline reading is taken for 10 seconds followed by the addition of 12.5 μl of agonist or buffer, producing a final volume of 50 μl. After agonist stimulation, the FLIPR continues to collect data every second for 60 pictures and then every 6 seconds for 20 pictures. The fluorescence emission is read using filter 1 (emission 510-570 nm) by the FLIPR on board CCD camera.
Calcium mobilization output data are calculated as the maximal relative fluorescence unit (RFU) minus the minimal value for both compound and agonist reading frame (except for hM1 and rM1 using only the maximal RFU). Data are analyzed using sigmoidal fits of a non-linear curve-fitting program (XLfit version 4.2.2 Excel add-in version 4.2.2 build 18 math 1Q version 2.1.2 build 18). All pEC50 and plC50 values are reported as arithmetic means ±standard error of mean of ‘n’ independent experiments.

In patent publication US20090221642A1, “MUSCARINIC RECEPTOR AGONISTS, COMPOSITIONS, METHODS OF TREATMENT THEREOF, AND PROCESSES FOR PREPARATION THEREOF-176” (AstraZeneca AB, priority 2008, published 2009) one finds EC50 data, which are given here for four molecules.

By EC50 is commonly meant the concentration giving half of the maximal effect. Consider `CC(C)OC(=O)N1CCC(C)(N2CCC(n3c(=O)[nH]c4ccc(F)cc43)CC2)C1` (single isomer, unassigned) [Example 65, isopropyl 3-(4-(6-fluoro-2-oxo-2,3-dihydro-1H-benzo[d]imidazol-1-yl)piperidin-1-yl)-3-methylpyrrolidine-1-carboxylate], for which the EC50 came out at 104 nM.
For `COC(=O)N1CCC(C)(N2CCC(N3C(=O)Cc4ccccc43)CC2)C1` (stereo not shown) [Example 71, methyl 3-methyl-3-(4-(2-oxoindolin-1-yl)piperidin-1-yl)pyrrolidine-1-carboxylate], the EC50 was found to be 123 nM.
The figure for `C#CCOC(=O)N1CCC(C)(N2CCC(n3c(=O)[nH]c4cc(C)ccc43)CC2)C1` (single isomer, unassigned) [Example 42, prop-2-ynyl 3-methyl-3-(4-(5-methyl-2-oxo-2,3-dihydro-1H-benzo[d]imidazol-1-yl)piperidin-1-yl)pyrrolidine-1-carboxylate] is 235 nM; for `CC#CCOC(=O)N1CCC(C)(N2CCC(n3c(=O)[nH]c4cc(C)ccc43)CC2)C1` (single isomer, unassigned) [Example 19, but-2-ynyl 3-methyl-3-(4-(5-methyl-2-oxo-2,3-dihydro-1H-benzo[d]imidazol-1-yl)piperidin-1-yl)pyrrolidine-1-carboxylate] it is 324 nM.
